Several values for one entry are separate records, joined by “and”; a condition that tells them apart may be missing. Identical values can stand only once. Results filed as inconclusive are left out. Activity calls are given as the source filed them.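 Rule for the calls: active = compound whose fitted half-maximal dose is at most twice its top tested dose in every repeat; inconclusive = mixed calls across repeats, weak flat response, or unreliable curve fit; inactive = all repeats flat, too weak, or wrong direction.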
The compounds below were run against Glycogen synthase kinase-3 beta (Homo sapiens) (UniProt P49841) (assay: inhibition of human GSK3beta kinase activity – biochemical, ADP-Glo luminescence, dry powder samples, SAR follow-up (AID 623998)). Settings: GSK3beta ADP-Glo luminescence kinase assay, 60 min.
Chain of Glycogen synthase kinase-3 beta (Homo sapiens) (P49841 whole entry, looked up): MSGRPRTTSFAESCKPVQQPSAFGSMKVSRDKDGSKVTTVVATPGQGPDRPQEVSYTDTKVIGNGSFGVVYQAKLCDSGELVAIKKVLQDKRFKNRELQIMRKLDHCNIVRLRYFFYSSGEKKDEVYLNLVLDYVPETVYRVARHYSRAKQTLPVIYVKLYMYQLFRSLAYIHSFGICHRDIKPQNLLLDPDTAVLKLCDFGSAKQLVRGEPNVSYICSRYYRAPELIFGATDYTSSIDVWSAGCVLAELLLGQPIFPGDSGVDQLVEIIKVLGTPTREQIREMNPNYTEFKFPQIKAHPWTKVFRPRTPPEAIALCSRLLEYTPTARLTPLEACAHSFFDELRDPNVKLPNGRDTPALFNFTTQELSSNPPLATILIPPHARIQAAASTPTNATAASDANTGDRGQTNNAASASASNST

| AC50 | Structure (SMILES) |
| --- | --- |
| 408 nM | Cc1[nH]nc2c1C(c1cccnc1)C1=C(CC(C)(C)CC1=O)N2 (configuration not stated) |
| 4610 nM | Cc1[nH]nc2c1C(c1ccc3c(c1)OCO3)C1=C(CC(C)(C)CC1=O)N2 (configuration not stated) |
| 313 nM | Cc1ccc(-c2nn(-c3ccccc3)cc2/C=N/O)cc1 |
| 14700 nM | COc1ccc(C2C3=C(CC(C)(C)CC3=O)Nc3n[nH]c(C)c32)cc1 (configuration not stated) |
| 3000 nM | COc1ccccc1C1C(C(C)=O)=C(C)Nc2n[nH]c(C)c21 (configuration not stated) |
| 1880 nM | Cc1[nH]nc2c1C(c1ccn[nH]1)C1=C(CC(C)(C)CC1=O)N2 (configuration not stated) |
| 3420 nM | COc1ccccc1C1C2=C(CCCC2=O)Nc2n[nH]c(C)c21 (configuration not stated) |
| 1550 nM | COc1ccccc1C1C2=C(CC(C)(C)CC2=O)Nc2n[nH]c(-c3ccccc3)c21 (configuration not stated) |
| 9290 nM | Cc1[nH]nc2c1C(c1ccc(C(F)(F)F)cc1)C1=C(CC(C)(C)CC1=O)N2 (configuration not stated) |
| 1760 nM | COc1cccc(-c2nn(-c3ccccc3)cc2/C=N/O)c1 |
| 134 nM | Cc1[nH]nc2c1C(c1ccccc1C#N)C1=C(CC(C)(C)CC1=O)N2 (configuration not stated) |
| 534 nM | Cc1[nH]nc2c1C(C)C1=C(CC(C)(C)CC1=O)N2 (configuration not stated) |
| 440 nM | O/N=C/c1cn(-c2ccccc2)nc1-c1ccc(F)cc1 |
| 617 nM | COc1ccc(-c2nn(-c3ccccc3)cc2/C=N/O)cc1OC |
| 2960 nM | Cc1[nH]nc2c1C(c1ccc(F)cc1)C1=C(CC(C)(C)CC1=O)N2 (configuration not stated) |
| 3080 nM | CC(C)COc1ccc(-c2nn(-c3ccccc3)cc2/C=N/O)cc1 |
| 7500 nM | COc1ccccc1/C=C1\C(=O)CC(C)(C)CC1=Nc1cc(C(F)(F)F)[nH]n1 |
| 455 nM | Cc1ccccc1C1C2=C(CC(C)(C)CC2=O)Nc2n[nH]c(C)c21 (configuration not stated) |
| 540 nM | Cc1[nH]nc2c1C(c1cccc(F)c1)C1=C(CC(C)(C)CC1=O)N2 (configuration not stated) |
| 2630 nM | CC1(C)CC(=O)/C(=C\c2cccc(F)c2C(F)(F)F)C(=Nc2cc(C(F)(F)F)[nH]n2)C1 |
| 2930 nM | O/N=C/c1cn(-c2ccccc2)nc1-c1ccccc1 |
| 614 nM | Cc1cccc(C2C3=C(CC(C)(C)CC3=O)Nc3n[nH]c(C)c32)c1 (configuration not stated) |
| 52.3 nM | Cc1[nH]nc2c1C(c1cccc(C#N)c1)C1=C(CC(C)(C)CC1=O)N2 (configuration not stated) |

| AC50 | Structure (SMILES) |
| --- | --- |
| 180 nM | Cc1[nH]nc2c1C(c1ccccc1Br)C1=C(CC(C)(C)CC1=O)N2 (configuration not stated) |
| 919 nM | Cc1[nH]nc2c1C(c1cccc(Cl)c1)C1=C(CC(C)(C)CC1=O)N2 (configuration not stated) |
| 23.8 nM | COc1ccccc1[C@@H]1C2=C(CC(C)(C)CC2=O)Nc2n[nH]c(C(F)(F)F)c21 |
| 3110 nM | CC1(C)CC(=O)/C(=C\c2ccccc2C(F)(F)F)C(=Nc2cc(C(F)(F)F)[nH]n2)C1 |
| 28100 nM | Cc1[nH]nc2nc3c(c(-c4cccs4)c12)C(=O)CC(C)(C)C3 |
| 807 nM | O=S(=O)(Nc1ccccn1)c1ccc(N=Cc2c(O)[nH]c3ccc4ncsc4c23)cc1 |
| 300 nM | Cc1[nH]nc2c1C(c1ccccc1Cl)C1=C(CC(C)(C)CC1=O)N2 (configuration not stated) |
| 124 nM | COc1ccccc1C1C2=C(CC(C)(C)CC2=O)Nc2n[nH]c(C)c21 (configuration not stated) |
| 45.2 nM | O/N=C/c1cn(-c2ccccc2)nc1-c1ccc(Cl)cc1 |
| 173 nM | CC1(C)CC(=O)C2=C(C1)Nc1n[nH]c(C(F)(F)F)c1C2c1ccc(F)cc1C(F)(F)F (configuration not stated) |
| 32.4 nM | CSc1ccccc1C1C2=C(CC(C)(C)CC2=O)Nc2n[nH]c(C)c21 (configuration not stated) |
| 403 nM | CC1(C)CC(=O)C2=C(C1)Nc1n[nH]c(C(F)(F)F)c1C2c1cc(F)ccc1OC(F)(F)F (configuration not stated) |
| 13.2 nM and 128 nM | COc1ccccc1C1C2=C(CC(C)(C)CC2=O)Nc2n[nH]c(C(F)(F)F)c21 (configuration not stated) |
| 1160 nM | COc1cccc(C2C3=C(CC(C)(C)CC3=O)Nc3n[nH]c(C)c32)c1 (configuration not stated) |
| 515 nM | COc1ccccc1C1C2=C(CCC(C)(C)C2=O)Nc2n[nH]c(C)c21 (configuration not stated) |
| 834 nM | COc1ccccc1C1C2=C(CC(C)(C)CC2=O)Nc2n[nH]c(C(C)(C)C)c21 (configuration not stated) |
| 184 nM | CC1(C)CC(=O)C2=C(C1)Nc1n[nH]c(C(F)(F)F)c1C2c1ccccc1F (configuration not stated) |
| 278 nM | COc1ccccc1C1C2=C(CC3(CCCCC3)CC2=O)Nc2n[nH]c(C)c21 (configuration not stated) |
| 627 nM | Cc1[nH]nc2c1C(c1cccs1)C1C(=O)CC(C)(C)CC1=N2 (configuration not stated) |
| 1370 nM | Cc1[nH]nc2c1C(c1ccsc1)C1=C(CC(C)(C)CC1=O)N2 (configuration not stated) |
| 37 nM | Cc1[nH]nc2c1[C@@H](c1ccccc1C(F)(F)F)C1=C(CC(C)(C)CC1=O)N2 |
| 3050 nM | Cc1[nH]nc2c1C(C1CC1)C1=C(CC(C)(C)CC1=O)N2 (configuration not stated) |
| 199 nM | Cc1[nH]nc2c1C(c1cccc(C(F)(F)F)c1)C1=C(CC(C)(C)CC1=O)N2 (configuration not stated) |

| AC50 | Structure (SMILES) |
| --- | --- |
| 122 nM | COc1ccccc1C1C2=C(CC(C)(C)CC2=O)Nc2[nH]ncc21 (configuration not stated) |
| 4990 nM | Cc1[nH]nc2c1C(c1ccc(Br)cn1)C1=C(CC(C)(C)CC1=O)N2 (configuration not stated) |
| 87.5 nM | CC1(C)CC(=O)C2=C(C1)Nc1n[nH]c(C(F)(F)F)c1C2c1c(F)cccc1F (configuration not stated) |
| 5570 nM | Cc1[nH]nc2c1[C@H](c1ccccc1C(F)(F)F)C1=C(CC(C)(C)CC1=O)N2 |
| 1020 nM | Cc1[nH]nc2c1C(c1ccccn1)C1=C(CC(C)(C)CC1=O)N2 (configuration not stated) |
| 50 nM | Cc1[nH]nc2c1C(c1cccc3nonc13)C1=C(CC(C)(C)CC1=O)N2 (configuration not stated) |
| 11600 nM | Cc1[nH]nc2c1[C@H](c1cccs1)C1=C(CC(C)(C)CC1=O)N2 |
| 1590 nM | COc1ccccc1[C@H]1C2=C(CC(C)(C)CC2=O)Nc2n[nH]c(C(F)(F)F)c21 |
| 451 nM | CC1(C)CC(=O)C2=C(C1)Nc1n[nH]c(C(F)(F)F)c1C2c1cc(F)ccc1F (configuration not stated) |
| 1910 nM | Cc1[nH]nc2c1[C@@H](c1cccs1)C1=C(CC(C)(C)CC1=O)N2 |
| 2290 nM | Cc1[nH]nc2c1C(c1ccc(F)cc1Cl)C1=C(CC(C)(C)CC1=O)N2 (configuration not stated) |
| 83.3 nM | CCc1[nH]nc2c1C(c1ccccc1OC)C1=C(CC(C)(C)CC1=O)N2 (configuration not stated) |
| 42.5 nM | Cc1[nH]nc2c1C(c1ccccc1C(F)(F)F)C1=C(CC(C)(C)CC1=O)N2 (configuration not stated) |
| 4440 nM | Cc1[nH]nc2c1C(c1ccc(Cl)cc1)C1=C(CC(C)(C)CC1=O)N2 (configuration not stated) |
| 10400 nM | Cc1[nH]nc2c1C(c1ccc(C#N)cc1)C1=C(CC(C)(C)CC1=O)N2 (configuration not stated) |
| 51.3 nM | CC1(C)CC(=O)C2=C(C1)Nc1n[nH]c(C(F)(F)F)c1C2c1cc(F)ccc1C(F)(F)F (configuration not stated) |
| 308 nM | Cc1[nH]nc2c1C(C)(c1ccccc1)C1=C(CC(C)(C)CC1=O)N2 (configuration not stated) |
| 577 nM | O/N=C/c1cn(-c2ccccc2)nc1-c1ccc2c(c1)OCCO2 |
| 2160 nM | Cc1ccc(C2C3=C(CC(C)(C)CC3=O)Nc3n[nH]c(C)c32)cc1 (configuration not stated) |
| 1140 nM | Cc1[nH]nc2c1C(c1ccc(Cl)s1)C1=C(CC(C)(C)CC1=O)N2 (configuration not stated) |
| 415 nM | COc1ccccc1C1C2=C(CC(C)(C)CC2=O)Nc2n[nH]c(C(C)C)c21 (configuration not stated) |
| 35.7 nM | CC1(C)CC(=O)C2=C(C1)Nc1n[nH]c(C(F)(F)F)c1C2c1ccccc1 (configuration not stated) |
| 737 nM | CC(C)c1ccc(-c2nn(-c3ccccc3)cc2/C=N/O)cc1 |

Same assay, conditions: GSK3beta ADP-Glo luminescence kinase assay, 60 min; at 46 µM (top of the series)

| activity, negative = inhibition | Structure (SMILES) |
| --- | --- |
| inactive | COc1ccccc1C1C2=C(CC(C)(C)CC2=O)Nc2ccccc21 (configuration not stated) |
| inactive | CN(C)Cc1cn(-c2ccccc2)nc1-c1ccccc1 |
| inactive | COc1ccc(-c2nn(-c3ccccc3)cc2C(=O)O)cc1 |
